ChEMBL document CHEMBL3421625, “Discovery and optimization of novel antagonists to the human neurokinin-3 receptor for the treatment of sex-hormone disorders (Part I)” (J Med Chem, 2015)
In brackets after ≈: the same amount, converted by molar mass.

Columns and labels:
[1] = Solubility of the compound in PBS buffer at pH 7.4 by shake-flask method; type: physicochemical
Neuromedin-K receptor [2] = biological target: T1, Neuromedin-K receptor (Homo sapiens, UniProt P29371); experiment: biochemical
T1 sequence (P29371 whole entry): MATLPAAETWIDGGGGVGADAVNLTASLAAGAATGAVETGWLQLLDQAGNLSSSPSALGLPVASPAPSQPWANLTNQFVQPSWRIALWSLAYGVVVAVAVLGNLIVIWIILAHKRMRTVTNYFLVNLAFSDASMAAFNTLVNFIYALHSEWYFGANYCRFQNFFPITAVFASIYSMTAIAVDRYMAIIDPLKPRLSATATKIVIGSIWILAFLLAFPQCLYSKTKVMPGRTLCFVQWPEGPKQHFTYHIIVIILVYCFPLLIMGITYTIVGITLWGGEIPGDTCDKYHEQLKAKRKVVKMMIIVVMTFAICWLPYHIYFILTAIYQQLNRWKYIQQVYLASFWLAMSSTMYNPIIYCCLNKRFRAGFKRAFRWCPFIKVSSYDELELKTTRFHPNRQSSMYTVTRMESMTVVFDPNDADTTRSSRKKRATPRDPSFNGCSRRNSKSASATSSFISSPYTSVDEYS
Description: Displacement of [3H]-SB222200 from recombinant human NK3R expressed in CHO cell membranes after 90 mins by scintillation counting analysis

Neuromedin-K receptor [3] = biological target: T1, Neuromedin-K receptor
Cytochrome P450 2C9 = Cytochrome P450 2C9 (Homo sapiens, UniProt P11712); experiment: Inhibition of CYP2C9 (unknown origin) by luciferase reporter assay in presence of NADPH regeneration system; type: ADME
Cytochrome P450 1A2 = biological target: T2, Cytochrome P450 1A2 (Homo sapiens, UniProt P05177); experiment: Inhibition of CYP1A2 (unknown origin) by luciferase reporter assay in presence of NADPH regeneration system; type: ADME
T2 sequence (P05177 whole entry): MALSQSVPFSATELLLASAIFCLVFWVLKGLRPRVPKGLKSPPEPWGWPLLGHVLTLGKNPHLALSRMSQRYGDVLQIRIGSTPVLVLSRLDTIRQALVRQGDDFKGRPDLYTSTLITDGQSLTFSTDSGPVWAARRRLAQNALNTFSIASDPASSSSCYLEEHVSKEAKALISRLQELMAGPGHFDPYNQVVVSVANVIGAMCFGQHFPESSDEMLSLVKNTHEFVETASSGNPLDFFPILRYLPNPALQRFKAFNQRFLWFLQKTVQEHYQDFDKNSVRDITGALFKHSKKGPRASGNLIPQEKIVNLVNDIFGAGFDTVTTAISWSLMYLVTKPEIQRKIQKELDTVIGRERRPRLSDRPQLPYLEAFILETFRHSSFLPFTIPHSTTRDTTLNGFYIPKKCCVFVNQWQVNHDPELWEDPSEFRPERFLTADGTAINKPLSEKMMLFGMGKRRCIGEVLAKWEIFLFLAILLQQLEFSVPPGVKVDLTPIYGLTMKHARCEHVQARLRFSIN

[4] = Lipophilicity, log D of the compound at pH 7.4; type: physicochemical; details: buffer, read-out: logD
Cytochrome P450 2C19 = Cytochrome P450 2C19 (Homo sapiens, UniProt P33261); experiment: Inhibition of CYP2C19 (unknown origin) by luciferase reporter assay in presence of NADPH regeneration system
Cytochrome P450 2D6 = Cytochrome P450 2D6 (Homo sapiens, UniProt P10635); experiment: Inhibition of CYP2D6 (unknown origin) by luciferase reporter assay in presence of NADPH regeneration system; type: ADME
Cytochrome P450 3A4 = Cytochrome P450 3A4 (Homo sapiens, UniProt P08684); experiment: Inhibition of CYP3A4 (unknown origin) by luciferase reporter assay in presence of NADPH regeneration system; type: ADME
Cytochrome P450 3A4, sequence (P08684 whole entry): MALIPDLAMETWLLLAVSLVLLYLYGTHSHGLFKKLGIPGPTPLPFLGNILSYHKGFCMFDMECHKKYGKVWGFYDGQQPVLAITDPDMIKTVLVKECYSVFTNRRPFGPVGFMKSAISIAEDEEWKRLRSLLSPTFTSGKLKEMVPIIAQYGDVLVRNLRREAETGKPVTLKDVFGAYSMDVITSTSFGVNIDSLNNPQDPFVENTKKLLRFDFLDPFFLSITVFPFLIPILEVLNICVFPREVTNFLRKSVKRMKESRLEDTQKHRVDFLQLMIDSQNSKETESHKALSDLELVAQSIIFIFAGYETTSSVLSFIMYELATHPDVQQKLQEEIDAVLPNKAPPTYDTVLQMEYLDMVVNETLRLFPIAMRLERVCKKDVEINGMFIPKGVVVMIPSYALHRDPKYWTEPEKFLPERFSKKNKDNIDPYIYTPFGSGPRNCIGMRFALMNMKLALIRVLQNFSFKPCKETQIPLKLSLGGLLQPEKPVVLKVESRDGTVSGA

Cytochrome P450 2C9, sequence (P11712 whole entry): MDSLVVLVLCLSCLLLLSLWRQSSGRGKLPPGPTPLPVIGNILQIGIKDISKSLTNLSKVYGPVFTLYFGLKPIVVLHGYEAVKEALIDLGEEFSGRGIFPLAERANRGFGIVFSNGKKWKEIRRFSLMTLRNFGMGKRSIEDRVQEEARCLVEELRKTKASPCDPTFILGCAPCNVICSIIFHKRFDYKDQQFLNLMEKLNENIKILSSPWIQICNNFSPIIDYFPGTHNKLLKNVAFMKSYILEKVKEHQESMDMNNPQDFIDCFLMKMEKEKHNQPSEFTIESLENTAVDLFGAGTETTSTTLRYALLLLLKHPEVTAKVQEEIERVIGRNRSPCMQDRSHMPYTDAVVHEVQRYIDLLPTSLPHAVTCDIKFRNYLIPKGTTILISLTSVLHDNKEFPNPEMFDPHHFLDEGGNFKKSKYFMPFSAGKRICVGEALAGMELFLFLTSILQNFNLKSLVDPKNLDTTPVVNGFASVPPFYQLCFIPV
Cytochrome P450 2D6, sequence (P10635 whole entry): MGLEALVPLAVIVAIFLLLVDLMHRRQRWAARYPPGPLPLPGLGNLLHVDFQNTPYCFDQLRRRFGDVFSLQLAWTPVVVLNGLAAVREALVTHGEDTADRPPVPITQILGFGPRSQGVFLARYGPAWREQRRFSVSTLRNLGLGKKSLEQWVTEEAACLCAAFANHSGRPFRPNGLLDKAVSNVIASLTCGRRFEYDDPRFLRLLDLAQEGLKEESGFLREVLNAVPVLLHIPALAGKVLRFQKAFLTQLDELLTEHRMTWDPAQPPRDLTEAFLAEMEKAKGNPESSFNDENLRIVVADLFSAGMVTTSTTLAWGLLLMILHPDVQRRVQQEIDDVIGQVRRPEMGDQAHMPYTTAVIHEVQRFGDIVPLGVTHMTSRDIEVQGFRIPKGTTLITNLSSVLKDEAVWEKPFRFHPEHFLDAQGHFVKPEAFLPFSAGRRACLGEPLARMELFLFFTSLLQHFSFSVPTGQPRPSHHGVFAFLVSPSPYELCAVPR
Cytochrome P450 2C19, sequence (P33261 whole entry): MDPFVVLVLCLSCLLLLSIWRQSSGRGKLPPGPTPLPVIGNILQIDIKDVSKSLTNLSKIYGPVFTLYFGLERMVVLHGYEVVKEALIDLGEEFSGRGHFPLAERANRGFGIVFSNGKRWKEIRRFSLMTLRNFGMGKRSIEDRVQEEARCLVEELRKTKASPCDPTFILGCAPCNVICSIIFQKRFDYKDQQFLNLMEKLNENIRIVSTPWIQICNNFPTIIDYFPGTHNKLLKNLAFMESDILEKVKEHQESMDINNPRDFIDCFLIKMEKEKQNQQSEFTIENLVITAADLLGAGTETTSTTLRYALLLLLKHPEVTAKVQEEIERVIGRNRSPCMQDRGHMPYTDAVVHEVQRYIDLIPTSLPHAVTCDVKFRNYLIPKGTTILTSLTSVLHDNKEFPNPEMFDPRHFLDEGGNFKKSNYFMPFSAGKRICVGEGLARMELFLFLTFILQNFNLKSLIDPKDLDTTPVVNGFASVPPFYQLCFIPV

| solubility thermodynamic [1] [µM] | Ki (Neuromedin-K receptor [2]) [µM] | IC50 (Neuromedin-K receptor [3]) [µM] | IC50 (Cytochrome P450 2C9) [µM] | IC50 (Cytochrome P450 1A2) [µM] | logD [4] | IC50 (Cytochrome P450 2C19) [µM] | IC50 (Cytochrome P450 2D6) [µM] | IC50 (Cytochrome P450 3A4) [µM] | SMILES |
| --- | --- | --- | --- | --- | --- | --- | --- | --- | --- |
| 196 (≈ 65.7 µg/mL) | > 31.6 | > 31.6 | – | – | – | – | – | – | COc1cccc(C(=O)N2CCn3c(nnc3-c3ccccn3)C2)c1 |
| 28 (≈ 10.7 µg/mL) | 1.26 | 1.58 | – | – | – | – | – | – | O=C(c1ccc(-c2ccccc2)cc1)N1CCn2c(nnc2-c2ccccn2)C1 |
| ≥ 200 | 6.31 | 6.31 | – | – | – | – | – | – | Cc1ccnc(-c2nnc3n2CCN(C(=O)c2ccc(F)cc2)C3)c1 |
| ≥ 200 | – | – | 56 | > 100 | 1.3 | 44 | > 100 | 63 | Cc1nc(-c2nnc3n2CCN(C(=O)c2ccc(F)cc2)[C@@H]3C)cs1 |
| 50 (≈ 21.1 µg/mL) | 0.00631 | – | 8 | 8 | 2.9 | 18 | 42 | 11 | Cc1csc(-c2nnc3n2CCN(C(=O)c2ccc(-c4cccs4)cc2)[C@@H]3C)n1 |
| 25 (≈ 11.2 µg/mL) | 0.00251 | 0.00398 | 4 | 17 | 4.4 | 12 | 27 | 35 | CC(C)c1nc(-c2nnc3n2CCN(C(=O)c2ccc(-c4cccs4)cc2)[C@@H]3C)cs1 |
| 197 (≈ 69.2 µg/mL) | 0.0631 | 0.0794 | – | – | 1.6 | – | – | – | Cc1cccc(-c2nnc3n2CCN(C(=O)c2ccc(F)cc2)[C@@H]3C)n1 |
| 160 (≈ 66.6 µg/mL) | 0.0126 | 0.02 | 17 | 50 | 2.7 | 39 | > 100 | 2 | Cc1cncc(-c2nnc3n2CCN(C(=O)c2ccc(-c4cccs4)cc2)[C@@H]3C)n1 |
| 169 (≈ 66.8 µg/mL) | > 31.6 | > 31.6 | – | – | – | – | – | – | O=C(c1ccc(Cc2ccccc2)cc1)N1CCn2c(nnc2-c2ccccn2)C1 |
| 11 (≈ 5.23 µg/mL) | 0.0794 | 0.0631 | 5 | 8 | 4.1 | 18 | > 100 | > 100 | C[C@@H]1c2nnc(-c3csc(C(F)(F)F)n3)n2CCN1C(=O)c1ccc(-c2cccs2)cc1 |
| ≥ 200 | 7.94 | 7.94 | – | – | – | – | – | – | C[C@H]1c2nnc(-c3ccccn3)n2CCN1C(=O)c1ccc(F)cc1 |
| 199 (≈ 64.3 µg/mL) | 5.01 | 6.31 | – | – | – | – | – | – | O=C(c1cccc(F)c1)N1CCn2c(nnc2-c2ccccn2)C1 |
| 179 (≈ 75.1 µg/mL) | 0.0251 | 0.0158 | 19 | 25 | 3.4 | 19 | 54 | 67 | C[C@@H]1c2nnc(-c3csc(-c4ccccc4)n3)n2CCN1C(=O)c1ccc(F)cc1 |
| 110 (≈ 45.7 µg/mL) | – | 0.01 | 18 | 57 | 3.4 | 26 | 86 | 45 | Cc1cccc(-c2nnc3n2CCN(C(=O)c2ccc(-c4cccs4)cc2)[C@@H]3C)n1 |
| ≥ 200 | > 31.6 | > 31.6 | – | – | – | – | – | – | Cc1cccnc1-c1nnc2n1CCN(C(=O)c1ccc(F)cc1)C2 |
| ≥ 200 | 0.501 | 0.501 | > 100 | 69 | 1.4 | 48 | > 100 | > 100 | Cc1cccc(-c2nnc3n2CCN(C(=O)c2ccc(F)cc2)C3)n1 |
| 6.4 (≈ 2.63 µg/mL) | > 31.6 | > 31.6 | – | – | – | – | – | – | COc1ccc(-c2ccc(C(=O)N3CCn4c(nnc4-c4ccccn4)C3)cc2)cc1 |
| ≥ 200 | 0.794 | 0.794 | – | – | – | – | – | – | C[C@@H]1c2nnc(-c3ccccn3)n2CCN1C(=O)c1ccc(F)cc1 |
| 1.4 (≈ 0.568 µg/mL) | 1.58 | 1.58 | – | – | – | – | – | – | O=C(c1cc(-c2ccc(Cl)cc2)n[nH]1)N1CCn2c(nnc2-c2ccccn2)C1 |
| 12 (≈ 4.65 µg/mL) | 0.501 | 0.631 | – | – | – | – | – | – | O=C(c1ccc(-c2cccs2)cc1)N1CCn2c(nnc2-c2ccccn2)C1 |
| ≥ 200 | > 31.6 | > 31.6 | – | – | – | – | – | – | O=C(c1ccccc1F)N1CCn2c(nnc2-c2ccccn2)C1 |
| 10 (≈ 3.99 µg/mL) | 2 | 1.58 | – | – | – | – | – | – | O=C(c1ccc(-c2ccc(F)cc2)cc1)N1CCn2c(nnc2-c2ccccn2)C1 |
| 194 (≈ 65.1 µg/mL) | > 31.6 | > 31.6 | – | – | – | – | – | – | COc1ccc(C(=O)N2CCn3c(nnc3-c3ccccn3)C2)cc1 |
| 193 (≈ 75.5 µg/mL) | 0.398 | 0.398 | > 100 | 21 | – | > 100 | > 100 | > 100 | O=C(c1ccc(F)cc1)N1CCn2c(nnc2-c2cccc(C(F)(F)F)n2)C1 |
| ≥ 200 | 1.58 | 2.51 | – | – | – | – | – | – | Cc1ccc(-c2nnc3n2CCN(C(=O)c2ccc(F)cc2)C3)nc1 |
| 5.3 (≈ 2.2 µg/mL) | 5.01 | 3.98 | – | – | – | – | – | – | O=C(c1ccc(-c2ccc(Cl)cc2)cc1)N1CCn2c(nnc2-c2ccccn2)C1 |
| 71 (≈ 27.4 µg/mL) | 15.8 | 10 | – | – | – | – | – | – | Cc1ccc(-c2ccc(C(=O)N3CCn4c(nnc4-c4ccccn4)C3)cc2)o1 |
| ≥ 200 | > 31.6 | > 31.6 | – | – | – | – | – | – | COc1ccccc1C(=O)N1CCn2c(nnc2-c2ccccn2)C1 |

| SMILES | solubility thermodynamic [1] [µM] | Ki (Neuromedin-K receptor [2]) [µM] | IC50 (Neuromedin-K receptor [3]) [µM] | IC50 (Cytochrome P450 2C9) [µM] | IC50 (Cytochrome P450 1A2) [µM] | logD [4] | IC50 (Cytochrome P450 2C19) [µM] | IC50 (Cytochrome P450 2D6) [µM] | IC50 (Cytochrome P450 3A4) [µM] |
| --- | --- | --- | --- | --- | --- | --- | --- | --- | --- |
| Cc1nc(-c2nnc3n2CCN(C(=O)c2ccc(-c4cccs4)cc2)[C@H]3C)cs1 | – | – | – | – | – | 3.1 | – | – | – |
